# Patent US7288573B2, “Method of repelling insects” (priority 2001, dated 2007)
# Values joined by “and” are separate entries in the source; they are usually repeats but may differ in a detail not shown here. Equal entries are not always repeated. “Also recorded” adds a separate entry of the source.
# Key:
# Aedes aegypti = test: Mosquito repellency of 2-undecanone versus DEET and Citronella in mineral oil (Example 9); assay type: in vivo; conditions: for Percent Efficacy Post-Treatment / NP, Mean / Percent (percent of mosquitoes responding, landings on the treated hand/arm) / NP / number of bites recorded / observed repellent activity (words): 20% in mineral oil; for NP: single replicates; for observed repellent activity (words): observed 0 to 12 hours
# From the text: Cages. Two mosquitoes cages were used for this experiment. The cages were constructed using wood framing and fine mesh wire screen. The dimensions of each cage were 59 cm high×55 cm wide by 59 cm deep. A hinged access door was installed at the front of each chamber for insertion of the water-filled containers filled with mosquito larvae. Also present at the front of each chamber was a 9 cm (I.D.) diameter plastic tube for insertion of the arm of the investigator. The arm insertion tube was sealed with a rubber stopper when not in use.
# Mosquitoes and Mosquito Rearing. Mosquitoes (Aedes aegypti) were obtained as eggs from Dr. Gary Benzon (Benzon Research, Inc., Carlisle, Pa. 17013, USA) and allowed to hatch at three successive intervals so as to provide a continuing long-term supply of fresh insects. Following their arrival, the egg rafts were divided into approximately equal numbers in multiple water-filled containers within the test chambers, which also served as emergence cages. Following hatching, the larval cultures were fed with insect rearing compound supplied by United States Department of Agriculture, Gainesville, Fla., USA, courtesy of a person The water in the breeding chambers was changed regularly at two or three day intervals by filtration to minimize contamination and prevent overcrowding. Mosquitoes were bred throughout the 3-week study period in order to maintain a continuing supply of fresh insects (see below) and build up the population, usually exceeding 100 insects per cage.
# Test Compounds and Testing Schedule. Testing was done with the mineral oil formulation of 2-undecanone for repellent activity by treating one arm of the investigator with approximately 1 ml of the test formulation. To avoid excessive bites and development of severe allergic reactions from multiple mosquito bites, treatments were applied to removable strips of cotton cloth taped to all parts of the investigator's hand and arm. Treatments were applied in a separate room, far from the mosquito cages. Following several minutes for the oil to soak in place, the cloth strips saturated with the treatment solution was attached to the investigator's wrist. Then, the treated arm was inserted through the insertion tube for 5 minutes. The other arm was treated with mineral oil (control) or a different compound and inserted into the insertion tube of the adjacent chamber. Next, the behavior of the mosquitoes in response to the presence of the investigator's arms was noted. Mosquito behavior was recorded as 1) landing or attempting to land on the investigator's hand or arm; 2) biting and sucking blood; or 3) dispersal away from the treated hand and arm towards the opposite ends of the cage. The approximate number of mosquitoes present in the cage at the beginning of each observation was noted. Treatments were alternated between the different cages. Each observation was repeated 3 times.
# 2-undecanone, DEET and Citronella arrived as liquids mixed in mineral oil in sealed plastic vials. To prepare the compounds for testing, the stocks were shaken vigorously to thoroughly mix the compounds in the mineral oil carrier, the vials opened and 1 ml samples applied directly as described above.
# Observations. Mosquitoes were recorded as 1) repelled if they dispersed away from the treated hand/arm, changed course while in flight after approaching the treated hand/arm, touched the treated hand/arm and quickly withdrew; versus 2) not repelled if they landed on the treated hand/arm and remained on the cloth or skin of the investigator, or bit the investigator and sucked blood. The number of bites during the exposure period also was recorded.
# […] Efficacy was calculated according to the formula: Efficacy=[(no.landings/no.present in control)−(no.landings/no. present in experimental) divided by (no.landings/no.present in control)]×100.
# Culex spp. = test: Mosquito repellency of 2-undecanone, treated arm in cage (Example 5); assay type: in vivo; conditions: for No. landings: single replicates; for observed mosquito behavior / repellent effect (words): observed at 0, 3 and 6 hours
# From the text: Two mosquitoes cages were constructed using wood framing and fine mesh wire screen. The dimensions of each cage were 59 cm high×55 cm wide×59 cm deep. A hinged access door was installed at the front of each chamber for insertion of the water-filled containers filled with mosquito pupae. Also present at the front of each chamber was a 9 cm diameter plastic tube (i.d.) for insertion of the arm of the investigator. The arm insertion tube was sealed with a rubber stopper when not in use.
# Mosquitoes (Culex spp.) were obtained (as pupae) from Carolina Biological Supply Co., Burlington, N.C., USA. Following their arrival, the mosquitoes were divided into approximately equal numbers in two water-filled containers and placed in the two cages described above. Some of the mosquitoes had hatched upon arrival.
# Testing was done with 2-undecanone for repellent activity by treating one arm of the investigator with approximately 1 ml of the test solution. Following several minutes for solvent evaporation, the treated arm was inserted through the insertion tube for 5 minutes. The other arm was treated with ethanol (control) or a different concentration of 2-undecanone, and inserted into the insertion tube of the adjacent chamber. Next, the behavior of the mosquitoes in response to the presence of the investigator's arms was noted. Mosquito behavior was recorded as 1) landing or attempting to land on the investigator's arm, versus 2) dispersal away from the treated arm towards the opposite ends of the cage. The approximate number of mosquitoes present at the beginning of the observations was noted. The observations were repeated (without re-treatment of the investigator's hand and arm) after 3 hours and again after 6 hours. Treatments were alternated between the different cages. Each observation was repeated 3 times. Tests were done with 20%, 5%, 2%, 0.5% 2-undecanone, 20% DEET, and the ethanol control.
# With one exception, none of the mosquitoes succeeded in biting, although mosquitoes that landed on the investigator's arm were dislodged by flicking the arm or hand. In most cases, any physical movement of the hand or arm will induce the mosquito to leave. Thus, few if any bites were expected. Landings on the arm were considered as evidence of attraction, with intent to bite.
# [1] = 0.5% on arm, 6 hours after treatment
# [2] = 2% on arm, 6 hours after treatment
# [3] = 5% on arm, 0 hours after treatment
# [4] = 5% on arm, 3 hours after treatment
# [5] = 5% on arm, 6 hours after treatment
# [6] = 20% on arm, 0 hours after treatment
# [7] = 20% on arm, 3 hours after treatment
# [8] = 20% on arm, 6 hours after treatment
structure (smiles),measurement,setting,value
CCCCCCCCCC(C)=O [2-undecanone],residual activity,Aedes aegypti; 1% concentration,none after 3 hours
same,duration of residual activity,Aedes aegypti; 5% level,up to 12 hours
same,duration of residual efficacy,Aedes aegypti; 20% concentration in mineral oil,up to 12 hours
same,Percent Efficacy Post-Treatment,Aedes aegypti; 0 hours,96.5%
same,"NP, Mean",Aedes aegypti; 0 hours after treatment,2.3
same,"Percent (percent of mosquitoes responding, landings on the treated hand/arm)",Aedes aegypti; 0 hours after treatment,2.0%
same,NP,Aedes aegypti; 0 hours after treatment,2 (3×) and 0 and 3 and 5
same,Percent Efficacy Post-Treatment,Aedes aegypti; 3 hours,90.1%
same,"NP, Mean",Aedes aegypti; 3 hours after treatment,3.7
same,"Percent (percent of mosquitoes responding, landings on the treated hand/arm)",Aedes aegypti; 3 hours after treatment,5.0%
same,NP,Aedes aegypti; 3 hours after treatment,1 and 6 and 4
same,Percent Efficacy Post-Treatment,Aedes aegypti; 6 hours,78.5%
same,"NP, Mean",Aedes aegypti; 6 hours after treatment,24.7
same,"Percent (percent of mosquitoes responding, landings on the treated hand/arm)",Aedes aegypti; 6 hours after treatment,14.7%
same,NP,Aedes aegypti; 6 hours after treatment,24 and 21 and 29
same,Percent Efficacy Post-Treatment,Aedes aegypti; 9 hours,81.5%
same,"NP, Mean",Aedes aegypti; 9 hours after treatment,4.7
same,"Percent (percent of mosquitoes responding, landings on the treated hand/arm)",Aedes aegypti; 9 hours after treatment,11.8%
same,NP,Aedes aegypti; 9 hours after treatment,6 and 1 and 7
same,Percent Efficacy Post-Treatment,Aedes aegypti; 12 hours,78.4%
same,number of bites recorded,Aedes aegypti; 12 hours,4
same,"NP, Mean",Aedes aegypti; 12 hours after treatment,7.7
same,"Percent (percent of mosquitoes responding, landings on the treated hand/arm)",Aedes aegypti; 12 hours after treatment,12.2%
same,NP,Aedes aegypti; 12 hours after treatment,4 and 8 and 11
same,observed repellent activity (words),Aedes aegypti,exceeding the efficacy of DEET (20%) and Citronella; also recorded: strong repellent activity
same,observed repellent activity (words),Aedes aegypti; listed as 2-Undecanone,"Comments: The 2-undecanone formulation was highly repellent. At zero hours, all; also recorded: No bites were observed until 12 hours"
same,number of bites recorded,Aedes aegypti; zero hours,None attempted to feed
same,"No. landings, Mean","Culex spp.; 0.5% on arm, 0 hours after treatment",0.7
same,"No. landings, Mean","Culex spp.; 0.5% on arm, 3 hours after treatment",0.7
same,"No. landings, Mean",Culex spp.; [1],0.3
same,No. landings,Culex spp.; [1],0 (2×) and 1
same,observed mosquito behavior / repellent effect (words),Culex spp.; 0.5% on arm,no differences between the treated arm and the ethanol controls were observed
same,observed mosquito behavior / repellent effect (words),"Culex spp.; 0.5% on arm, listed as Undecanone","throughout the cage. No obvious avoidance, no dispersal away from"
same,"No. landings, Mean","Culex spp.; 2% on arm, 0 hours after treatment",0.7
same,"No. landings, Mean","Culex spp.; 2% on arm, 3 hours after treatment",1.0
same,"No. landings, Mean",Culex spp.; [2],0.7
same,No. landings,Culex spp.; [2],1 (2×) and 0
same,observed mosquito behavior / repellent effect (words),Culex spp.; 2% on arm,"at three hours after treatment, there was no effect"
same,"No. landings, Mean",Culex spp.; [3],0
same,No. landings,Culex spp.; [3],0
same,"No. landings, Mean",Culex spp.; [4],0
same,No. landings,Culex spp.; [4],0
same,"No. landings, Mean",Culex spp.; [5],1.0
same,No. landings,Culex spp.; [5],1
same,observed mosquito behavior / repellent effect (words),Culex spp.; 5% on arm,immediate and obvious repellent behavior; also recorded: The effect was absent after 6 hours
same,observed mosquito behavior / repellent effect (words),"Culex spp.; 5% on arm, listed as Undecanone",Comments: The formulation was highly repellent. Mosquitoes
same,"No. landings, Mean",Culex spp.; [6],0
same,No. landings,Culex spp.; [6],0
same,"No. landings, Mean",Culex spp.; [7],0
same,No. landings,Culex spp.; [7],0
same,"No. landings, Mean",Culex spp.; [8],0
same,No. landings,Culex spp.; [8],0
same,observed mosquito behavior / repellent effect (words),Culex spp.; 20% on arm,the effect was lost after 6 hours
same,concentrations with the strongest repellent effect,"Culex spp.; tested at 20%, 5%, 2%, 0.5%",strongest effect at the 5% and 20% concentrations
"CCN(CC)C(=O)c1cccc(C)c1 [DEET, N,N-diethyl-meta-toluamide, reference compound]",Percent Efficacy Post-Treatment,Aedes aegypti; 0 hours,96.0%
same,"NP, Mean",Aedes aegypti; 0 hours after treatment,2.0
same,"Percent (percent of mosquitoes responding, landings on the treated hand/arm)",Aedes aegypti; 0 hours after treatment,2.3%
same,NP,Aedes aegypti; 0 hours after treatment,3 (2×) and 1 (2×)
same,Percent Efficacy Post-Treatment,Aedes aegypti; 3 hours,73.9%
same,"NP, Mean",Aedes aegypti; 3 hours after treatment,18.7
same,"Percent (percent of mosquitoes responding, landings on the treated hand/arm)",Aedes aegypti; 3 hours after treatment,13.1%
same,NP,Aedes aegypti; 3 hours after treatment,22 and 11 and 23
same,Percent Efficacy Post-Treatment,Aedes aegypti; 6 hours,75.9%
same,"NP, Mean",Aedes aegypti; 6 hours after treatment,21.7
same,"Percent (percent of mosquitoes responding, landings on the treated hand/arm)",Aedes aegypti; 6 hours after treatment,16.5%
same,NP,Aedes aegypti; 6 hours after treatment,31 and 21 and 13
same,Percent Efficacy Post-Treatment,Aedes aegypti; 9 hours,85.3%
same,number of bites recorded,Aedes aegypti; 9 hours (later intervals),2
same,"NP, Mean",Aedes aegypti; 9 hours after treatment,7.3
same,"Percent (percent of mosquitoes responding, landings on the treated hand/arm)",Aedes aegypti; 9 hours after treatment,9.4%
same,NP,Aedes aegypti; 9 hours after treatment,11 and 7 and 4
same,Percent Efficacy Post-Treatment,Aedes aegypti; 12 hours,71.3%
same,number of bites recorded,Aedes aegypti; 12 hours,22
same,"NP, Mean",Aedes aegypti; 12 hours after treatment,28.7
same,"Percent (percent of mosquitoes responding, landings on the treated hand/arm)",Aedes aegypti; 12 hours after treatment,16.2%
same,NP,Aedes aegypti; 12 hours after treatment,16 and 37 and 33
same,observed repellent activity (words),Aedes aegypti,"strong repellent activity, similar to that observed for 2-undecanone"
same,number of bites recorded,Aedes aegypti; zero hours,one
same,"No. landings, Mean",Culex spp.; [6],0
same,No. landings,Culex spp.; [6],0
same,"No. landings, Mean",Culex spp.; [7],0
same,No. landings,Culex spp.; [7],0
same,"No. landings, Mean",Culex spp.; [8],0.3
same,No. landings,Culex spp.; [8],1 and 0 (2×)
same,observed mosquito behavior / repellent effect (words),Culex spp.; 20% on arm,"The effect persisted after 3 hours, but was largely lost after 6 hours"
